# Patent US20220023317A1, “PREVENTING OR MITIGATING CHEMOTHERAPY INDUCED ALOPECIA USING VITAMIN D” (Berg LLC, priority 2013, published 2022)
# Like-named read-outs stand apart in the source and are kept apart here.
# What was measured:
# HEKa cells = experiment: Protection of HEKa cells by calcitriol against chemotherapeutic drugs; type: cell-based, human
# Description: These include: erlotinib (Tarceva), an EGFR Tyr kinase inhibitor; gefutubib (Iressa), an EGFR Tyr kinase inhibitor; sorafenib, inhibitor of several Tyr kinases (Raf, VEGF-R2, c-kit, PDGR-R); Dasatinib, a BCR/ABL Tyr kinase inhibitor; and staurosporin, a relatively nonspecific kinase inhibitor.
# The drug treatment period was usually three days. At the end of the three days, the background OD of the 96-well plate was read at 280 nm, before 20 μL of the “Substrate Cell Titer 96 Aqueous One Solution Reagent” (Promega) was added to each well. The plate was returned to the 37° C. incubator, and its OD at 490 nm was read each hour until an OD of approximately 1.5 was reached. The net OD increase was calculated by subtracting the pre-substrate OD reading.
# The impact of the drug on the cells was calculated by comparing the OD at different concentrations in relation to the OD of the control wells (without the drug).
# [1] = system: Long Evans and Sprague Dawley rats
# Description: Specifically, Long Evans and Sprague Dawley rats with pups were purchased from Harlan Laboratories, Inc. They were housed and fed according to applicable animal handling rules and regulations. Pups were allowed to acclimate for 48 hours prior to the start of experiments. […] Rats were isolated from their littermates and mother for 6-hour periods of time. Subsequently, the treated area was cleaned with soap and water and pups were returned to their litters. On day 13, rats either received etoposide (1.5 mg/kg daily for 3 days) or cyclophosphamide (CTX) (37.5 mg/kg once) or combination cyclophosphamide (35 mg/kg once) and doxorubicin (2.5 mg/kg daily for 3 days). All chemotherapies were purchased from Sigma and were given intraperitoneally (i.p.) in a total volume of 0.1 mL. Alopecia was recorded 10 days after the last dose of chemotherapy.
# PC-3 = experiment: Cell growth / viability assay; type: cell-based; details: 0.1 μg/mL calcitriol for two passages
# Description: In these experiments, a selected commercial drug was serially diluted, starting at a concentration 4-times higher than the final desired concentration for cell incubation. […] The drug treatment period was usually three days. At the end of the three days, the background OD of the 96-well plate was read at 280 nm, before 20 μL of the “Substrate Cell Titer 96 Aqueous One Solution Reagent” (Promega) was added to each well. […] The net OD increase was calculated by subtracting the pre-substrate OD reading. The impact of the drug on the cells was calculated by comparing the OD at different concentrations in relation to the OD of the control wells (without the drug). The results of the Net OD as a function of drug concentration was plotted and used to determine ED50 values. […] Then these pretreated cells were utilized to set up the cell based assay.
# [2] = system: MIAC51 (chloroleukemia cells); experiment: Rats transplanted with chloroleukemia MIAC51, CTX with topical calcitriol; type: in vivo, rat; details: cyclophosphamide, preliminary results
# Description: For experiments in which rats were transplanted with chloroleukemia, on Day 5 after birth, rats were randomly divided into three groups of 45 each. All rats received 1×10^5 chloroleukemic cell line MIAC51 (i.p.) in 0.1 mL of serum free (SF) RPMI. MIAC51 were cultured in RPMI 1640 supplemented with L-glutamine and 10% fetal bovine serum at 37° C. in a 5% CO2, 100% humidity incubator. Cells were grown to 50% confluency (1.5×106 mL) collected in 50 mL conical tubes, centrifuged at 600 g×10 min. at room temperature and resuspended in SF-RPMI at a concentration of 1×10^6/mL. Group 1 rats received no further treatment. Group 2 rats received topical vehicle and CTX on day 13. […] Topical applications were performed as described above.
# On day 23 after birth, a sample of blood was taken from all rats and differentials performed. Rats with leukemia were sacrificed, rats without leukemia were kept and a second differential performed on day 31, at any point if leukemia was detected, animals were sacrificed by CO2 asphyxiation.
# scalp hair follicles = experiment: Rat model, duration of calcitriol treatment before chemotherapy; type: in vivo
# Excerpt: While not wishing to be bound by any particular theory, it is believed that application of vitamin D to the scalp or any other area of skin having hair induces differentiation of hair follicles, which is required for the stage conversion of the hair from a growing anagen stage to an involuting catagen stage. […] In humans, a hair follicle of the scalp has a substantially longer anagen phase than that of animals. Indeed, at any time, at least 90% of hair follicles in a human scalp are in the anagen phase. It is believed that a short treatment duration is not sufficient to induce catagen stage in scalp hair follicles, which subsequently makes them more susceptible to cytotoxicity of chemotherapy. […] Continued application on a daily basis will ensure the maintenance of the catagen stage and extended protection throughout administration of multiple doses of a chemotherapeutic (e.g., taxane-containing) regimen.
# [3] = 4-week dermal toxicity study in Gottingen Minipigs; details: both, Gottingen, minipig, in vivo
# Description: (§1) Observations for morbidity, mortality, injury, and the availability of food and water were conducted twice daily for all animals. Clinical observations were conducted weekly.
# Gottingen Minipig = experiment: 4-week dermal toxicity study in Gottingen Minipigs; details: dermal, twice daily, 29 days, 2.1 mL over 450 cm^2
# Description: as §1
# C3H/HeJ mouse = experiment: C3H/HeJ model of alopecia areata; type: in vivo; details: 0.2 μg for 15 days, observed 30 days
# Description: C3H/HeJ Model of Abpecia Areata. Retired breeders (8 months of age) were observed daily for the development of AA lesions. […] One group received ethanol vehicle control whereas the other received 0.2 μg 1,25(OH)2D3 in the alopecic lesions for 15 days.
compound,measurement,setting,value
"C=C1/C(=C\C=C2/CCC[C@]3(C)[C@@H]([C@H](C)CCCC(C)(C)O)CC[C@@H]23)C[C@@H](O)C[C@@H]1O [Calcitriol, (1a.3B.5Z.7E)-9,10-secocholesta-5,7,10(19)-triene-1,3,25-triol]",protective effect against 5-FU,HEKa cells; 0.1 μg/mL calcitriol,mild protective effect
same,protective effect against doxorubicin,HEKa cells; 0.1 μg/mL calcitriol,did not appear to provide a significant protective effect
same,protective effect against gemcitabine,HEKa cells; 0.1 μg/mL calcitriol,mild protective effect
same,protective effect against irinotecan,HEKa cells; 0.1 μg/mL calcitriol,positive protective effect
same,protective effect against paclitaxel,HEKa cells; 0.1 μg/mL calcitriol,some protective effects
same,protective effect against tamoxifen,HEKa cells; 0.1 μg/mL calcitriol,weak
same,interaction (synergy) between calcitriol and drugs tested,"HEKa cells; 0.1 μg/mL calcitriol premixed with 15 drugs, three days",no interaction
same,protection against alkylating agents cisplatin and carboplatin,"HEKa cells; 0.1 μg/mL calcitriol, low dosage levels",moderate level of protection
same,protective effect against kinase inhibitor drugs,"HEKa cells; 0.1 μg/mL calcitriol, erlotinib, gefitinib, sorafenib, dasatinib, staurosporin at low drug dosage",provided certain growth stimulation and protected the HEKa cells
same,protection from etoposide-induced alopecia,"[1]; 0.1 μg of calcitriol topical for 6 hours, daily x6, etoposide 1.5 mg/kg x3",partial localized protection
same,protection from cyclophosphamide-induced alopecia,[1]; 0.3 μg calcitriol topical,full body protection
same,protection from etoposide-induced alopecia,[1]; 0.3 μg calcitriol topical,total body protection
same,"response to doxorubicin, cisplatin, erlotinib after calcitriol exposure",PC-3,did not alter
same,protection of the cancer cells from chemotherapy,[2],have not shown protection of the cancer cells
same,daily application before chemotherapy required to see any protective effect,scalp hair follicles,at least four days
same,protection with 5 days of application before chemotherapy,scalp hair follicles; increasing protection up to one week,moderate protection
same,NOAEL at 29 days,[3],3.33 µg/kg
same,no-observed-adverse-effect-level (NOAEL),Gottingen Minipig,10.31 µg/mL
same,regrowth of hair in alopecic lesions,C3H/HeJ mouse,No regrowth of hair
